Consider one compound from patent publication US10487121B2, “D-peptide inhibitors of HIV entry and methods of use” (priority 2016, dated 2019).

Structures are written as SMILES. Where two headings read alike, the source gives them in different places.

Series [1] can be described thus: Rodent pharmacokinetics of PIE12-trimer and conjugates (Table 3 protocol). The class given is in vivo, Sprague Dawley rats. The following applies: rats, 1.0 mg/kg, plasma, median; for half-life: read-out: T1/2 (converted). The procedure:
At each timepoint, plasma was obtained using lithium heparin.
Samples were spiked with an internal standard then precipitated with two volumes of 98% acetonitrile/2% Formic acid. Supernatants were analyzed by LC/MS/MS using an Agilent HPLC system (Waters X-Bridge BEH C18 column) paired to an AB Sciex API 3000 triple-quad mass spectrometer using MRM methods. Lipid conjugates required lower source temperatures (300° C. vs 500° C.) for improved reproducibility.

Series [2] addresses HXB2 (X4) luciferase reporter pseudovirions on HOS-CD4-CXCR4. The following applies: values marked * from Francis, et al. Bioconjugates, read-out: Antiviral potency HXB2 (IC50); cited from earlier work.
For series [3], the target named is JRFL (R5) luciferase reporter pseudovirions on HOS-CD4-CCR5. The following applies: values marked * from Francis, et al. Bioconjugates, read-out: Antiviral potency JRFL (IC50); cited from earlier work.

Take `CC(=O)N[C@H](Cc1c[nH]cn1)C(=O)N1CCC[C@@H]1C(=O)N[C@@H]1CSSC[C@H](C(=O)N[C@H](CCC(=O)O)C(=O)N[C@H](CC(C)C)C(=O)NCC(=O)N[C@H](CCCCNC(=O)CCOCCOCCOCCOCCNC(=O)CCOCC(N)(COCCC(=O)NCCOCCOCCOCCOCCC(=O)NCCCC[C@@H](NC(=O)CNC(=O)[C@@H](CC(C)C)NC(=O)[C@@H](CCC(=O)O)NC(=O)[C@H]2CSSC[C@@H](NC(=O)[C@H]3CCCN3C(=O)[C@@H](Cc3c[nH]cn3)NC(C)=O)C(=O)N[C@H](CC(=O)O)C(=O)N[C@H](Cc3ccc(O)cc3)C(=O)N3CCC[C@@H]3C(=O)N[C@H](CCC(=O)O)C(=O)N[C@H](Cc3c[nH]c4ccccc34)C(=O)N[C@H](CCC(N)=O)C(=O)N[C@H](Cc3c[nH]c4ccccc34)C(=O)N[C@H](CC(C)C)C(=O)N2)C(N)=O)COCCC(=O)NCCOCCOCCOCCOCCC(=O)NCCCC[C@@H](NC(=O)CNC(=O)[C@@H](CC(C)C)NC(=O)[C@@H](CCC(=O)O)NC(=O)[C@H]2CSSC[C@@H](NC(=O)[C@H]3CCCN3C(=O)[C@@H](Cc3c[nH]cn3)NC(C)=O)C(=O)N[C@H](CC(=O)O)C(=O)N[C@H](Cc3ccc(O)cc3)C(=O)N3CCC[C@@H]3C(=O)N[C@H](CCC(=O)O)C(=O)N[C@H](Cc3c[nH]c4ccccc34)C(=O)N[C@H](CCC(N)=O)C(=O)N[C@H](Cc3c[nH]c4ccccc34)C(=O)N[C@H](CC(C)C)C(=O)N2)C(N)=O)C(N)=O)NC(=O)[C@@H](CC(C)C)NC(=O)[C@@H](Cc2c[nH]c3ccccc23)NC(=O)[C@@H](CCC(N)=O)NC(=O)[C@@H](Cc2c[nH]c3ccccc23)NC(=O)[C@@H](CCC(=O)O)NC(=O)[C@H]2CCCN2C(=O)[C@@H](Cc2ccc(O)cc2)NC(=O)[C@@H](CC(=O)O)NC1=O` [PIE12-trimer]: in series [1] (rat, in vivo, IV), the AUC(0-inf) is 0.168 µM·h, the C0 came to 275 nM and the half-life was 33 min. In series [1] (rat, in vivo, IV, read-out: Cl (obs) (converted)), the clearance was 13.9 mL/min/kg. Also, in series [1] (rat, in vivo, IV, read-out: Vz (obs)), the Vd is 0.7 L/kg. Besides, in series [1] (rat, in vivo, SC), the AUC(0-inf) came out at 0.208 µM·h, the Cmax was found to be 80 nM, the Tmax amounted to 30 min and the half-life was 48.6 min. Moreover, in series [1] (SC), the F is on record as 96%. The IC50 in series [2] is 0.72 ± 0.04 nM. The IC50 in series [3] was 2.1 ± 0.28 nM.
